Test results as given in article PMC11350809, “Targeting N-Acetylglucosaminidase in Staphylococcus aureus with Iminosugar Inhibitors” (Antibiotics, 2024).
Like-named read-outs stand apart in the source and are kept apart here.

Legend:
[1] = biological target: α-Glucosidase (from baker's yeast); conditions: cited from earlier work
[2] = biological target: α-Galactosidase (from green coffee beans); conditions: cited from earlier work
[3] = biological target: β-Glucosidase (from almond); conditions: cited from earlier work
[4] = biological target: β-Galactosidase (from bovine liver); conditions: cited from earlier work
naringinase (Nar) = conditions: cited from earlier work
[5] = biological target: human recombinant β-glucocerebrosidase (GBA); conditions: cited from earlier work
[6] = biological target: β-galactocerebrosidase (GALC); conditions: cited from earlier work
S. aureus (ATCC 29213) = assay: Minimal inhibitory concentration, broth microdilution; assay type: cell-based, Staphylococcus aureus; conditions: for MIC: Staphylococcus aureus, ATCC29213; for antibacterial activity against S. aureus ATCC 29213: in words
Experimental: (§1) The minimal inhibitory concentrations (MICs) were determined against the bacterial strains S. aureus (ATCC 29213) and E. coli (ATCC 25922), and the results are presented in Table S6.
(§2) Antimicrobial testing was carried out by the broth microdilution method in a 96-well plate format following the CLSI guidelines and European Committee for Antimicrobial Susceptibility Testing (EUCAST) recommendations. Bacterial suspension of a specific bacterial strain equivalent to 0.5 McFarland turbidity standard was diluted with cation-adjusted Mueller Hinton broth to obtain a final inoculum of 10^5 CFU/mL. Compounds dissolved in 20% DMSO and inoculum were mixed together and incubated for 20 h at 35 °C. After incubation, the minimal inhibitory concentration (MIC) values were determined by visual inspection as the lowest dilution of compounds showing no turbidity. The MICs were determined against S. aureus (ATCC 29213) and E. coli (ATCC 25922) bacterial strains. Tetracycline was used as a positive control on every assay plate, showing MICs of 0.5 µg/mL and 1 µg/mL for S. aureus and E. coli, respectively.

E. coli (ATCC 25922) = assay: Minimal inhibitory concentration, broth microdilution (negative control strain); assay type: cell-based; conditions: Escherichia coli, ATCC25922
Experimental: as §1, §2

[7] = pH 7.2, p-nitrophenyl-α-D-glucopyranoside, footnote *
[8] = pH 6.8, p-nitrophenyl-α-D-galactopyranoside, footnote *
[9] = pH 5.0, p-nitrophenyl-β-D-glucopyranoside, footnote *
[10] = pH 5.2, footnote *, read-out: IC50 GBA pH 5.2
[11] = pH 7.0, footnote *, read-out: IC50 GBA pH 7.0
[12] = broth microdilution, 20 h at 35 °C, read-out: MIC S. aureus ATCC29213
[13] = broth microdilution, 20 h at 35 °C, read-out: MIC E. coli ATCC25922
[14] = pH 7.2, p-nitrophenyl-a-d-glucopyranoside, footnote **
[15] = pH 6.8, p-nitrophenyl-a-d-galactopyranoside, footnote **
[16] = pH 5.0, p-nitrophenyl-b-d-glucopyranoside, footnote **
[17] = pH 5.2, footnote **, read-out: IC50 GBA pH 5.2
[18] = pH 7.0, footnote **, read-out: IC50 GBA pH 7.0

SMILES | MIC (S. aureus (ATCC 29213); [12]) | antibacterial activity against S. aureus ATCC 29213 (S. aureus (ATCC 29213)) | MIC (E. coli (ATCC 25922); [13]) | IC50 [1, 14] | IC50 [2, 15] | IC50 [3, 16] | IC50 ([4]; footnote **) | IC50 (naringinase (Nar); footnote **) | IC50 [5, 17] | IC50 [5, 18] | IC50 ([6]; footnote **) | further results
CCCCCCCCN=C1OCC2C(O)C(O)C(O)CN12 (stereo not drawn) [Compound 12] | – | – | – | – | – | – | – | – | – | – | – | IC50 [1, 7]: > 100 µM; IC50 [2, 8]: > 100 µM; IC50 [3, 9]: 5.7 ± 0.4 µM; IC50 ([4]; footnote *): 0.4 ± 0.01 µM; IC50 (naringinase (Nar); footnote *): 0.1 ± 0.01 µM; IC50 [5, 10]: 0.1 ± 0.01 µM; IC50 [5, 11]: 0.02 ± 0.001 µM; IC50 ([6]; footnote *): > 10 µM
CCCCCCCCCCN=C1OCC2C(O)C(O)C(O)CN12 (stereo not drawn) [Compound 13] | – | – | – | – | – | – | – | – | – | – | – | IC50 [1, 7]: > 100 µM; IC50 [2, 8]: > 100 µM; IC50 [3, 9]: 2.1 ± 0.1 µM; IC50 ([4]; footnote *): 0.1 ± 0.01 µM; IC50 (naringinase (Nar); footnote *): 0.01 ± 0.01 µM; IC50 [5, 10]: 0.02 ± 0.001 µM; IC50 [5, 11]: 0.001 ± 0.001 µM; IC50 ([6]; footnote *): > 10 µM
CCCCCCCCCCCCNC(=O)N1CC(O)C(O)C(O)C1 (stereo not drawn) [Compound 9] | 250 µM | modest antibacterial activities | > 500 µM | > 100 µM | > 100 µM | > 100 µM | 12.9 ± 1.9 µM | > 100 µM | > 10 µM | > 10 µM | > 10 µM | –
CCCCOC1OCC(CNC(=N)N2CC(O)C(O)C(O)C2)O1 (stereo not drawn) [Compound 11] | > 500 µM | – | > 500 µM | – | – | – | – | – | – | – | – | IC50 ([1]; pH 7.2, p-nitrophenyl-α-D-glucopyranoside, footnote ***): > 30 µM; IC50 ([2]; pH 6.8, p-nitrophenyl-α-D-galactopyranoside, footnote ***): > 30 µM; IC50 ([3]; pH 5.0, p-nitrophenyl-β-D-glucopyranoside, footnote ***): 19.2 ± 0.5 µM; IC50 ([4]; footnote ***): > 30 µM; IC50 (naringinase (Nar); footnote ***): > 30 µM; IC50 ([5]; pH 5.2, footnote ***, read-out: IC50 GBA pH 5.2): > 30 µM; IC50 ([5]; pH 7.0, footnote ***, read-out: IC50 GBA pH 7.0): 2.56 ± 0.233 µM; IC50 ([6]; footnote ***): > 30 µM
CN(C)[C@@H]1C(O)=C(C(N)=O)C(=O)[C@@]2(O)C(O)=C3C(=O)c4c(O)cccc4[C@@](C)(O)[C@H]3C[C@@H]12 [Tetracycline, reference compound] | – | – | – | – | – | – | – | – | – | – | – | MIC (S. aureus (ATCC 29213); positive control on every assay plate, read-out: MIC S. aureus): 0.5 µg/mL; MIC (E. coli (ATCC 25922); positive control on every assay plate, read-out: MIC E. coli): 1 µg/mL
CCCCCCCCCCCCCCNC(=N)N1CC(O)C(O)C(O)C1 (stereo not drawn) [Compound 5] | 15 µM | modest antibacterial activities | 125 µM | > 100 µM | > 100 µM | 2.8 ± 0.1 µM | 1.6 ± 0.2 µM | 33.5 ± 1.7 µM | 0.04 ± 0.01 µM | 0.02 ± 0.001 µM | > 10 µM | –
CCCCCCCCCCN(CCCCCCCCCC)C(=O)CNC(=N)N1CC(O)C(O)C(O)C1 (stereo not drawn) [Compound 6] | ≤ 4 µM | modest antibacterial activities | 500 µM | > 100 µM | > 100 µM | > 100 µM | 11.6 ± 4 µM | 3.9 ± 0.6 µM | 0.04 ± 0.01 µM | 0.02 ± 0.001 µM | > 10 µM | –
CCCCCCCCCCCCNC(=N)N1CC(O)C(O)C(O)C1 (stereo not drawn) [Compound 4] | 62.5 µM | modest antibacterial activities | 500 µM | > 100 µM | > 100 µM | 10.7 ± 0.3 µM | 0.7 ± 0.1 µM | 37.2 ± 1.7 µM | 0.04 ± 0.01 µM | 0.02 ± 0.001 µM | > 10 µM | –
